Reference: PubChem BioAssay (NCI)
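These data come from cells grown in 96-well plates and exposed to compound for 48 hours at five concentrations. GI50 = concentration required for 50% inhibition of growth. TGI is the concentration that stops growth completely.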

What was measured:
Experiment in all cases: NCI anticancer screen, dose series, 48 h
[1] = test system: HCC-2998 colon
[2] = test system: UO-31 renal
[3] = test system: HOP-62 NSCLC
[4] = test system: HCT-15 colon
[5] = test system: MOLT-4 leukemia
[6] = test system: RPMI-8226 leukemia
[7] = test system: MALME-3M melanoma
[8] = test system: CCRF-CEM leukemia
[9] = test system: HL-60(TB) leukemia
[10] = test system: MDA-MB-231 breast

SMILES	GI50 [1] [µM]	TGI [1] [µM]	GI50 [2] [µM]	TGI [2] [µM]	GI50 [3] [µM]	TGI [3] [µM]	GI50 [4] [µM]	TGI [4] [µM]	GI50 [5] [µM]	TGI [5] [µM]	GI50 [6] [µM]	TGI [6] [µM]	GI50 [7] [µM]	TGI [7] [µM]	GI50 [8] [µM]	TGI [8] [µM]	GI50 [9] [µM]	TGI [9] [µM]	GI50 [10] [µM]	TGI [10] [µM]
C[C@@H]1COCCN1c1cc(C2(S(C)(=N)=O)CC2)nc(-c2ccnc3[nH]ccc23)n1 (stereo not given in full)	2.39	> 100	2.55	22.8	2.94	36.1	3.98	> 100	2.35	49.4	5.73	36.1	5.55	34	1.55	> 100	4	> 100	3.92	74.7
Cc1nc2sc(C(=O)Nc3ccccc3)c(N)c2cc1C(=O)/C=C/c1ccccc1	1.77	3.28	1.54	2.89	2.15	5.13	1.57	3.63	2.91	76.1	1.67	5.2	2.35	7.71	2.22	> 100	2.03	4.83	3.41	11.3
Clc1nc(Cl)c2c(ncn2C/C=C\Cn2cnc3c(Cl)nc(Cl)nc32)n1	1.5	3.05	2.08	4.35	2.35	5.21	1.5	3.2	1.42	3.25	1.58	3.8	2.22	4.2	0.573	2.57	1.85	> 100	1.88	3.65
CC(=O)O[C@@H]1CC2C(C)(C)CCCC2(C)C2=C1C(=O)C(C(C)C)=CC2=O (stereo not given in full)	0.405	1.62	0.519	1.8	1.77	4.13	0.536	2.49	1.13	> 100	0.948	93.4	0.784	4.8	2.79	> 100	0.744	4.28	0.657	3.13
Nc1cc(N)c(N)cc1N	13.4	27.9	1.56	4.6	1.76	3.35	2.01	4.68	3.14	28.6	3.48	17.5	1.79	3.45	3.43	27.5	2.17	6.02	5.02	29.4
C=C(C)C(=O)O[C@H]1[C@H]2[C@H](OC(=O)[C@H]2C)[C@H](O)[C@@H](C)[C@@H]2C=CC(=O)[C@]21C		5.72		15.4		34.1		6.38		7.52		9.73		5.54		7.53		2.86		14
CC(=O)[O-].CC(=O)[O-].[NH2-].[Pt+2].c1ccc2cnccc2c1	> 100	> 100	22.9	97.5	74.5	> 100	16.9	45.8	1.4	27.3	27.7	> 100	12.9	> 100	14.1	> 100	9.62	87.5	27.3	> 100
